Data taken from the NIST ThermoML archive (doi:10.1016/j.fluid.2017.06.019).

Conditions: Coaxial cylinder method

CCC [propane]
thermal conductivity [W/m/K]
Conditions | 367.32 K | 368.46 K
2968 kPa, Gas | – | 0.03214
2972 kPa, Gas | – | 0.03214
2978 kPa, Gas | – | 0.03213
3000 kPa, Gas | – | 0.03223
3030 kPa, Gas | – | 0.03238
3100 kPa, Gas | – | 0.03275
3150 kPa, Gas | – | 0.03302
3200 kPa, Gas | – | 0.03331
3250 kPa, Gas | – | 0.0336
3300 kPa, Gas | – | 0.03395
3350 kPa, Gas | – | 0.03428
3400 kPa, Gas | – | 0.03471
3500 kPa, Gas | – | 0.03552
3575 kPa, Gas | – | 0.03626
3650 kPa, Gas | – | 0.03704
3700 kPa, Gas | – | 0.03759
3720 kPa, Gas | – | 0.03785
3730 kPa, Gas | – | 0.03799
3740 kPa, Gas | – | 0.0381
3750 kPa, Gas | – | 0.03825
3755 kPa, Gas | – | 0.03832
3765 kPa, Gas | – | 0.03844
3775 kPa, Gas | – | 0.03858
3785 kPa, Gas | – | 0.03873
3790 kPa, Gas | – | 0.03878
3800 kPa, Gas | – | 0.03892
3850 kPa, Gas | – | 0.03974
3900 kPa, Gas | – | 0.04073
3950 kPa, Gas | – | 0.04194
4000 kPa, Gas | – | 0.04351
4038 kPa, Gas | – | 0.04518
4060 kPa, Gas | – | 0.04654
4066 kPa, Liquid | 0.1808 | –
4067 kPa, Liquid | 0.1761 | –
4068 kPa, Liquid | 0.1712 | –
4069 kPa, Liquid | 0.1669 | –
4070 kPa, Liquid | 0.1627 | –
4071 kPa, Liquid | 0.1586 | –
4072 kPa, Liquid | 0.1546 | –
4073 kPa, Liquid | 0.1511 | –
4074 kPa, Liquid | 0.1475 | –
4075 kPa, Liquid | 0.1439 | –
4076 kPa, Liquid | 0.1405 | –
4077 kPa, Liquid | 0.1378 | –
4078 kPa, Liquid | 0.1345 | –
4079 kPa, Liquid | 0.1317 | –
4080 kPa, Gas | – | 0.04809
4080 kPa, Liquid | 0.129 | –
4081 kPa, Liquid | 0.127 | –
4082 kPa, Liquid | 0.1249 | –
4083 kPa, Liquid | 0.123 | –
4084 kPa, Liquid | 0.121 | –
4085 kPa, Liquid | 0.1189 | –
4086 kPa, Liquid | 0.1166 | –
4087 kPa, Liquid | 0.115 | –
4088 kPa, Liquid | 0.1136 | –
4089 kPa, Liquid | 0.1118 | –
4090 kPa, Liquid | 0.1105 | –
4091 kPa, Liquid | 0.109 | –
4092 kPa, Liquid | 0.1085 | –
4093 kPa, Liquid | 0.1068 | –
4094 kPa, Liquid | 0.1051 | –
4095 kPa, Liquid | 0.1042 | –
4096 kPa, Gas | – | 0.04969
4096 kPa, Liquid | 0.1034 | –
4097 kPa, Liquid | 0.1027 | –
4098 kPa, Liquid | 0.1021 | –
4099 kPa, Gas | – | 0.05013
4099 kPa, Liquid | 0.1016 | –
4100 kPa, Liquid | 0.1007 | –
4101 kPa, Liquid | 0.09965 | –
4102 kPa, Gas | – | 0.0505
4102 kPa, Liquid | 0.09856 | –
4103 kPa, Liquid | 0.09755 | –
4104 kPa, Gas | – | 0.05078
4104 kPa, Liquid | 0.09655 | –
4105 kPa, Liquid | 0.09562 | –
4106 kPa, Gas | – | 0.05104
4106 kPa, Liquid | 0.0947 | –
4107 kPa, Liquid | 0.0938 | –
4108 kPa, Liquid | 0.09296 | –
4109 kPa, Liquid | 0.09214 | –
4110 kPa, Liquid | 0.09124 | –
4112 kPa, Gas | – | 0.05196
4112 kPa, Liquid | 0.08967 | –
4114 kPa, Gas | – | 0.05236
4114 kPa, Liquid | 0.0892 | –
4115 kPa, Gas | – | 0.0525
4116 kPa, Gas | – | 0.0527
4116 kPa, Liquid | 0.08674 | –
4117 kPa, Gas | – | 0.05291
4118 kPa, Gas | – | 0.05307
4118 kPa, Liquid | 0.08545 | –
4119 kPa, Gas | – | 0.05335
4120 kPa, Gas | – | 0.05349
4120 kPa, Liquid | 0.08412 | –
4121 kPa, Gas | – | 0.05378
4122 kPa, Gas | – | 0.05392
4122 kPa, Liquid | 0.08294 | –
4123 kPa, Gas | – | 0.05418
4124 kPa, Gas | – | 0.0565
4124 kPa, Liquid | 0.08176 | –
4125 kPa, Gas | – | 0.0589
4126 kPa, Gas | – | 0.06178
4126 kPa, Liquid | 0.08067 | –
4127 kPa, Gas | – | 0.06494
4128 kPa, Gas | – | 0.06863
4128 kPa, Liquid | 0.07964 | –
4129 kPa, Gas | – | 0.07284
4130 kPa, Gas | – | 0.07749
4130 kPa, Liquid | 0.07867 | –
4131 kPa, Gas | – | 0.08276
4132 kPa, Gas | – | 0.08878
4132 kPa, Liquid | 0.07775 | –
4133 kPa, Gas | – | 0.09573
4134 kPa, Gas | – | 0.1033
4134 kPa, Liquid | 0.07688 | –
4135 kPa, Gas | – | 0.1122
4136 kPa, Gas | – | 0.1221
4136 kPa, Liquid | 0.07609 | –
4137 kPa, Gas | – | 0.1337
4138 kPa, Gas | – | 0.1478
4138 kPa, Liquid | 0.07523 | –
4139 kPa, Gas | – | 0.1619
4140 kPa, Gas | – | 0.1793
4140 kPa, Liquid | 0.07455 | –
4141 kPa, Gas | – | 0.2022
4142 kPa, Gas | – | 0.214
4142 kPa, Liquid | 0.0738 | –
4143 kPa, Gas | – | 0.2272
4144 kPa, Gas | – | 0.241
4144 kPa, Liquid | 0.07315 | –
4145 kPa, Liquid | – | 0.2612
4146 kPa, Liquid | 0.0725 | 0.2405
4147 kPa, Liquid | – | 0.2228
4148 kPa, Liquid | 0.07187 | 0.2065
4149 kPa, Liquid | – | 0.1933
4150 kPa, Liquid | 0.07132 | 0.1809
4151 kPa, Liquid | – | 0.1745
4152 kPa, Liquid | 0.07076 | 0.1686
4153 kPa, Liquid | – | 0.164
4154 kPa, Liquid | 0.07028 | 0.1581
4155 kPa, Liquid | – | 0.1533
4156 kPa, Liquid | 0.06982 | 0.1489
4157 kPa, Liquid | – | 0.1449
4158 kPa, Liquid | – | 0.141
4159 kPa, Liquid | – | 0.1373
4160 kPa, Liquid | 0.06894 | 0.1338
4161 kPa, Liquid | – | 0.1305
4162 kPa, Liquid | 0.06852 | 0.1273
4163 kPa, Liquid | – | 0.1243
4164 kPa, Liquid | 0.06814 | 0.1214
4165 kPa, Liquid | – | 0.12
4166 kPa, Liquid | 0.06773 | –
4168 kPa, Liquid | 0.0674 | –
4170 kPa, Liquid | 0.06707 | –
4172 kPa, Liquid | 0.06674 | –
4174 kPa, Liquid | 0.06646 | –
4176 kPa, Liquid | 0.0662 | –
4178 kPa, Liquid | 0.06599 | –
4180 kPa, Liquid | 0.06574 | –
4182 kPa, Liquid | 0.06551 | –
4184 kPa, Liquid | 0.0653 | –
4186 kPa, Liquid | 0.06509 | –
4188 kPa, Liquid | 0.0649 | –
4190 kPa, Liquid | 0.06474 | –
4192 kPa, Liquid | 0.0647 | –
4194 kPa, Liquid | 0.06462 | –
4196 kPa, Liquid | 0.06458 | –
4198 kPa, Liquid | 0.06458 | –
4200 kPa, Liquid | 0.06456 | –
4202 kPa, Liquid | 0.06454 | –
4204 kPa, Liquid | 0.06452 | –
4206 kPa, Liquid | 0.0645 | –
4208 kPa, Liquid | 0.06448 | –
4210 kPa, Liquid | 0.06446 | –
4212 kPa, Liquid | 0.06444 | –
4214 kPa, Liquid | 0.06445 | –
4216 kPa, Liquid | 0.06443 | –
4218 kPa, Liquid | 0.06443 | –
4220 kPa, Liquid | 0.06439 | –
4222 kPa, Liquid | 0.06437 | –
4224 kPa, Liquid | 0.06435 | –
4226 kPa, Liquid | 0.06433 | –
4228 kPa, Liquid | 0.06435 | –
4230 kPa, Liquid | 0.06433 | –
4232 kPa, Liquid | 0.06431 | –
4234 kPa, Liquid | 0.06432 | –
4236 kPa, Liquid | 0.06432 | –
4238 kPa, Liquid | 0.0643 | –
4240 kPa, Liquid | 0.06428 | –
4250 kPa, Liquid | 0.06424 | –
4260 kPa, Liquid | 0.0642 | –
4270 kPa, Liquid | 0.06416 | –
4280 kPa, Liquid | 0.06413 | –
4290 kPa, Liquid | 0.06409 | –
4300 kPa, Liquid | 0.06407 | –
4350 kPa, Liquid | 0.06399 | –
4400 kPa, Liquid | 0.06399 | –
4450 kPa, Liquid | 0.06405 | –
4500 kPa, Liquid | 0.06413 | –
4550 kPa, Liquid | 0.06426 | –
4600 kPa, Liquid | 0.0644 | –
4650 kPa, Liquid | 0.06452 | –
4700 kPa, Liquid | 0.06466 | –
4770 kPa, Liquid | 0.06483 | –
4800 kPa, Liquid | 0.06498 | –
4850 kPa, Liquid | 0.06516 | –
4900 kPa, Liquid | 0.06532 | –
4950 kPa, Liquid | 0.06554 | –
4976 kPa, Liquid | 0.06564 | –
5077 kPa, Liquid | 0.06597 | –
